Where “and” joins values, the source holds several entries; their conditions need not be identical. Equal entries are not always repeated. ± gives the expanded uncertainty stated by the source.
Legend:
[1] = Liquid; for mass density: 298.15 K, 101.33 kPa, Vibrating tube method
[2] = Boiling temperature at pressure P; settings: 101.33 kPa; Liquid; Ebulliometric method (Recirculating still)
[3] = refractive index (Na D-line) (dimensionless); settings: 298.15 K; 101.33 kPa; Liquid; Standard Abbe refractometry

CCC(C)(C)OC [2-methoxy-2-methylbutane]
Settings	Boiling temperature at pressure P [°C]	mass density [kg/m3]	refractive index
[1]	–	765.83 ± 0.13	–
[2]	86.37 ± 0.04	–	–
[3]	–	–	1.38712 ± 0.00031

[1]
Settings	vapor or sublimation pressure [kPa]
313.44 K	20.01 ± 0.07
318.99 K	25.01 ± 0.07
323.68 K	30.01 ± 0.08
327.77 K	35.01 ± 0.08
331.41 K	40.01 ± 0.09
334.69 K	45.01 ± 0.09
337.64 K	50 ± 0.57
337.66 K	50 ± 0.57
337.69 K	50.01 ± 0.09
340.46 K	55.01 ± 0.1
343.03 K	60.01 ± 0.1
345.89 K	66.01 ± 0.11
348.97 K	73.01 ± 0.11
349.73 K	75 ± 1.1
349.8 K	75 ± 1.1
351.84 K	80.01 ± 0.12
354.52 K	87.01 ± 0.13
356.92 K	94 ± 1.5
357.02 K	94.01 ± 0.13
357.04 K	94 ± 1.5
359.95 K	102.73 ± 0.14

CCC(C)O (stereo not given) [butan-2-ol]
Settings	mass density [kg/m3]	refractive index
[1]	802.98 ± 0.11	–
[3]	–	1.39676 ± 0.00031

[1]
Settings	vapor or sublimation pressure [kPa]
334.83 K	20.01 ± 0.08
339.42 K	25.01 ± 0.08
343.31 K	30.01 ± 0.08
346.69 K	35.01 ± 0.09
349.69 K	40.01 ± 0.09
352.38 K	45.01 ± 0.1
354.84 K	50.01 ± 0.11
354.91 K	50 ± 0.47
355.12 K	50 ± 0.47
357.11 K	55.01 ± 0.11
359.21 K	60.01 ± 0.12
361.55 K	66.01 ± 0.12
364.08 K	73.01 ± 0.13
364.8 K	75 ± 0.9
365.2 K	75 ± 0.9
366.4 K	80.01 ± 0.14
368.58 K	87.01 ± 0.15
370.61 K	94.01 ± 0.16
370.66 K	94 ± 1.2
371.17 K	94 ± 1.2

CCCCCCC [heptane]
Settings	Boiling temperature at pressure P [°C]	mass density [kg/m3]	refractive index
[1]	–	679.55 ± 0.16	–
[2]	98.4 ± 0.04	–	–
[3]	–	–	1.38668 ± 0.00031

[1]
Settings	vapor or sublimation pressure
319.06 K	16.01 ± 0.07 kPa
329.07 K	24.01 ± 0.07 kPa
334.91 K	30.01 ± 0.08 kPa
339.08 K	35.01 ± 0.08 kPa
342.78 K	40.01 ± 0.09 kPa
346.14 K	45.01 ± 0.09 kPa
349.19 K	50.01 ± 0.09 kPa and 50 ± 0.57 kPa
349.24 K	50 ± 0.57 kPa
352.01 K	55.01 ± 0.1 kPa
354.63 K	60.01 ± 0.1 kPa
357.1 K	65.01 ± 0.11 kPa
359.42 K	70.01 ± 0.11 kPa
361.59 K	75.01 ± 0.11 kPa
361.6 K	75 ± 1.1 kPa
361.66 K	75 ± 1.1 kPa
363.67 K	80.01 ± 0.12 kPa
366.41 K	87.01 ± 0.12 kPa
368.98 K	94 ± 1.5 kPa
368.99 K	94.01 ± 0.13 kPa
369.04 K	94 ± 1.5 kPa
371.63 K	101.74 ± 0.14 kPa
